Data published in patent US20120083522A1, “MODULATION OF INFLAMMATORY RESPONSES BY FACTOR XI” (Isis Pharmaceuitcals, inc., priority 2009, published 2012).

Tests used:
human Factor XI mRNA [1] = test: Dose-dependent inhibition in cyno primary hepatocytes, electroporation (Example 6); type: cell-based, cynomolgus monkey; settings: approx. 16 h
In short: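 Cyno primary hepatocytes electroporated with antisense oligonucleotide at 0.74, 2.2, 6.7, 20, 60 and 180 nM and treated ~16 h. Factor XI mRNA measured by qRT-PCR (primer probe set RTS 2966), normalised to total RNA by RIBOGREEN; percent inhibition relative to untreated cells.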

[2] = Tolerability in Sprague-Dawley rats: body and organ weight (Example 19); type: in vivo; settings: 50 mg/kg s.c. twice per week for 6 weeks, change over weight at start of study
Text: (§1) Urine samples were taken before the start of treatment.
The body weights are presented in Table 78 and are expressed as a percent change over the weights taken at the start of the study.

human Factor XI mRNA [3] = test: Dose-dependent inhibition in HepG2 cells, electroporation (Example 5); type: cell-based; settings: approx. 16 h, relative to untreated control cells
In short: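 20,000 cells per well electroporated with 625–20,000 nM antisense oligonucleotide; RNA isolated after ~16 h. Factor XI mRNA by quantitative real-time PCR (primer probe set RTS 2966), normalised to RIBOGREEN total RNA; percent inhibition relative to untreated control cells.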

human Factor XI mRNA [4] = test: Dose-dependent inhibition in HepG2 cells, lipofectin (Example 5); type: cell-based; settings: 16 hours
In short: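 HepG2 cells (10,000/well) were lipofectin-transfected with antisense oligonucleotide at 2.34–75 nM for about 16 h. Factor XI mRNA was measured by qRT-PCR (primer-probe RTS 2966), normalised to RIBOGREEN total RNA, and expressed as percent inhibition versus untreated cells.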

human Factor XI mRNA [5] = test: Dose-dependent inhibition in HepB3 cells, electroporation (Example 7); type: cell-based; settings: approx. 16 h
In short: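 HepB3 cells electroporated with gapmer at 41.15, 123.457, 370.37, 1111.11, 3333.33 and 10,000 nM; ~16 h treatment. Factor XI mRNA quantified by qRT-PCR (primer probe set RTS 2966), normalized to RIBOGREEN total RNA; percent inhibition versus untreated control cells.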

human Factor XI mRNA [6] = test: Dose-dependent inhibition in HepB3 cells, lipofectin (Example 7); type: cell-based; settings: approx. 16 h
In short: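 Antisense oligonucleotides at 2.3–75 nM were delivered by lipofectin into cells seeded at 4,000/well and left for ~16 h. Factor XI mRNA was quantified by qRT-PCR with primer probe set RTS 2966 and normalised to RIBOGREEN total RNA. Values are percent inhibition versus untreated cells.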

[7] = Tolerability in Sprague-Dawley rats: kidney function (Example 19); type: in vivo; settings: Sprague Dawley rats; for urine protein/creatinine ratio, After: after 50 mg/kg s.c. twice per week for 6 weeks; for urine protein/creatinine ratio, Before: before antisense oligonucleotide treatment
Text: as §1

human Factor XI mRNA [8] = test: Dose-dependent inhibition in HepG2 cells, lipofectin (Example 4); type: cell-based; settings: 16 hours
In short: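 Read-out was percent inhibition of Factor XI mRNA relative to untreated controls, by qRT-PCR (RTS 2966) adjusted for RIBOGREEN-measured total RNA. Cells received antisense oligonucleotide at 9.375 to 75 nM (four levels) via lipofectin. Treatment lasted approximately 16 hours, with plating at 10,000 cells per well.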

Substance | percent inhibition of human Factor XI mRNA (human Factor XI mRNA [1]; 0.74 nM) | percent inhibition of human Factor XI mRNA (human Factor XI mRNA [1]; 2.2 nM) | percent inhibition of human Factor XI mRNA (human Factor XI mRNA [1]; 6.7 nM) | percent inhibition of human Factor XI mRNA (human Factor XI mRNA [1]; 20 nM) | percent inhibition of human Factor XI mRNA (human Factor XI mRNA [1]; 60 nM) | percent inhibition of human Factor XI mRNA (human Factor XI mRNA [1]; 180 nM) | Percent change in Body weight [2] | percent inhibition of human Factor XI mRNA (human Factor XI mRNA [3]; 625 nM) | percent inhibition of human Factor XI mRNA (human Factor XI mRNA [3]; 1250 nM) | percent inhibition of human Factor XI mRNA (human Factor XI mRNA [3]; 2500 nM) | percent inhibition of human Factor XI mRNA (human Factor XI mRNA [3]; 5000 nM) | percent inhibition of human Factor XI mRNA (human Factor XI mRNA [3]; 10000 nM) | percent inhibition of human Factor XI mRNA (human Factor XI mRNA [3]; 20000 nM) | percent inhibition of human Factor XI mRNA, relative to untreated control cells (human Factor XI mRNA [4]; 2.34 nM) | percent inhibition of human Factor XI mRNA, relative to untreated control cells (human Factor XI mRNA [4]; 4.69 nM) | percent inhibition of human Factor XI mRNA, relative to untreated control cells (human Factor XI mRNA [4]; 9.375 nM) | percent inhibition of human Factor XI mRNA, relative to untreated control cells (human Factor XI mRNA [4]; 18.75 nM) | percent inhibition of human Factor XI mRNA, relative to untreated control cells (human Factor XI mRNA [4]; 37.5 nM) | percent inhibition of human Factor XI mRNA, relative to untreated control cells (human Factor XI mRNA [4]; 75 nM) | percent inhibition of human Factor XI mRNA (human Factor XI mRNA [5]; 41.15 nM) | also measured
416999 (antisense GCACAGTTTCTGGCAGGCCT; 2-13-5 gapmer, wing sugar chemistry not given here, further chemistry not given here) [compound 416999] | 3% | 40% | 36% | 62% | 67% | 82% | −37% | 61% | 82% | 89% | 94% | 94% | 97% | 10% | 26% | 42% | 62% | 72% | 80% | 31% | percent inhibition of human Factor XI mRNA (human Factor XI mRNA [5]; 123.457 nM): 45%; percent inhibition of human Factor XI mRNA (human Factor XI mRNA [5]; 370.37 nM): 62%; percent inhibition of human Factor XI mRNA (human Factor XI mRNA [5]; 1111.11 nM): 78%; percent inhibition of human Factor XI mRNA (human Factor XI mRNA [5]; 3333.33 nM): 94%; percent inhibition of human Factor XI mRNA (human Factor XI mRNA [5]; 10000 nM): 97%; percent inhibition of human Factor XI mRNA (human Factor XI mRNA [6]; 2.3 nM): 19%; percent inhibition of human Factor XI mRNA (human Factor XI mRNA [6]; 4.7 nM): 33%; percent inhibition of human Factor XI mRNA (human Factor XI mRNA [6]; 9.4 nM): 42%; percent inhibition of human Factor XI mRNA (human Factor XI mRNA [6]; 18.75 nM): 60%; percent inhibition of human Factor XI mRNA (human Factor XI mRNA [6]; 37.5 nM): 71%; percent inhibition of human Factor XI mRNA (human Factor XI mRNA [6]; 75 nM): 59%; urine protein/creatinine ratio, After [7]: 9.1; urine protein/creatinine ratio, Before [7]: 1.3; percent inhibition of Factor XI mRNA, relative to untreated control cells (human Factor XI mRNA [8]; 9.375 nM): 24%; percent inhibition of Factor XI mRNA, relative to untreated control cells (human Factor XI mRNA [8]; 18.75 nM): 37%; percent inhibition of Factor XI mRNA, relative to untreated control cells (human Factor XI mRNA [8]; 37.5 nM): 55%; percent inhibition of Factor XI mRNA, relative to untreated control cells (human Factor XI mRNA [8]; 75 nM): 73%
417002 (antisense GGTGCACAGTTTCTGGCAGG; 2-13-5 gapmer, wing sugar chemistry not given here, further chemistry not given here) [compound 417002] | 32% | 16% | 28% | 38% | 55% | 71% | −29% | 59% | 72% | 86% | 90% | 94% | 96% | 17% | 26% | 49% | 61% | 81% | 84% | 19% | percent inhibition of human Factor XI mRNA (human Factor XI mRNA [5]; 123.457 nM): 0%; percent inhibition of human Factor XI mRNA (human Factor XI mRNA [5]; 370.37 nM): 31%; percent inhibition of human Factor XI mRNA (human Factor XI mRNA [5]; 1111.11 nM): 47%; percent inhibition of human Factor XI mRNA (human Factor XI mRNA [5]; 3333.33 nM): 86%; percent inhibition of human Factor XI mRNA (human Factor XI mRNA [5]; 10000 nM): 93%; percent inhibition of human Factor XI mRNA (human Factor XI mRNA [6]; 2.3 nM): 24%; percent inhibition of human Factor XI mRNA (human Factor XI mRNA [6]; 4.7 nM): 30%; percent inhibition of human Factor XI mRNA (human Factor XI mRNA [6]; 9.4 nM): 46%; percent inhibition of human Factor XI mRNA (human Factor XI mRNA [6]; 18.75 nM): 57%; percent inhibition of human Factor XI mRNA (human Factor XI mRNA [6]; 37.5 nM): 71%; percent inhibition of human Factor XI mRNA (human Factor XI mRNA [6]; 75 nM): 65%; urine protein/creatinine ratio, After [7]: 2.4; urine protein/creatinine ratio, Before [7]: 1.0; percent inhibition of Factor XI mRNA, relative to untreated control cells (human Factor XI mRNA [8]; 9.375 nM): 35%; percent inhibition of Factor XI mRNA, relative to untreated control cells (human Factor XI mRNA [8]; 18.75 nM): 52%; percent inhibition of Factor XI mRNA, relative to untreated control cells (human Factor XI mRNA [8]; 37.5 nM): 67%; percent inhibition of Factor XI mRNA, relative to untreated control cells (human Factor XI mRNA [8]; 75 nM): 70%
417003 (antisense TGGTGCACAGTTTCTGGCAG; 2-13-5 gapmer, wing sugar chemistry not given here, further chemistry not given here) [compound 417003] | 12% | 18% | 19% | 39% | 58% | 74% | −40% | 60% | 74% | 86% | 90% | 95% | 95% | 6% | 29% | 48% | 64% | 73% | 82% | 31% | percent inhibition of human Factor XI mRNA (human Factor XI mRNA [5]; 123.457 nM): 0%; percent inhibition of human Factor XI mRNA (human Factor XI mRNA [5]; 370.37 nM): 15%; percent inhibition of human Factor XI mRNA (human Factor XI mRNA [5]; 1111.11 nM): 43%; percent inhibition of human Factor XI mRNA (human Factor XI mRNA [5]; 3333.33 nM): 84%; percent inhibition of human Factor XI mRNA (human Factor XI mRNA [5]; 10000 nM): 92%; percent inhibition of human Factor XI mRNA (human Factor XI mRNA [6]; 2.3 nM): 11%; percent inhibition of human Factor XI mRNA (human Factor XI mRNA [6]; 4.7 nM): 28%; percent inhibition of human Factor XI mRNA (human Factor XI mRNA [6]; 9.4 nM): 40%; percent inhibition of human Factor XI mRNA (human Factor XI mRNA [6]; 18.75 nM): 40%; percent inhibition of human Factor XI mRNA (human Factor XI mRNA [6]; 37.5 nM): 63%; percent inhibition of human Factor XI mRNA (human Factor XI mRNA [6]; 75 nM): 58%; urine protein/creatinine ratio, After [7]: 4.8; urine protein/creatinine ratio, Before [7]: 0.9; percent inhibition of Factor XI mRNA, relative to untreated control cells (human Factor XI mRNA [8]; 9.375 nM): 26%; percent inhibition of Factor XI mRNA, relative to untreated control cells (human Factor XI mRNA [8]; 18.75 nM): 44%; percent inhibition of Factor XI mRNA, relative to untreated control cells (human Factor XI mRNA [8]; 37.5 nM): 60%; percent inhibition of Factor XI mRNA, relative to untreated control cells (human Factor XI mRNA [8]; 75 nM): 56%
